Measured values as given in PMC8632988, “Inhibition of SYK and cSrc kinases can protect bone and cartilage in preclinical models of osteoarthritis and rheumatoid arthritis” (Scientific Reports, 2021).
Several values for one entry are separate records, joined by “and”; a condition that tells them apart may be missing. Equal values may be shown once.

What was measured:
[1] = biological target: T1, c-Src (Homo sapiens, UniProt P12931); assay: cSrc inhibition and kinase selectivity profile assay; format: biochemical
T1 construct: purchased Reaction Biology Corporation (assay service)
T1 sequence (P12931 whole entry): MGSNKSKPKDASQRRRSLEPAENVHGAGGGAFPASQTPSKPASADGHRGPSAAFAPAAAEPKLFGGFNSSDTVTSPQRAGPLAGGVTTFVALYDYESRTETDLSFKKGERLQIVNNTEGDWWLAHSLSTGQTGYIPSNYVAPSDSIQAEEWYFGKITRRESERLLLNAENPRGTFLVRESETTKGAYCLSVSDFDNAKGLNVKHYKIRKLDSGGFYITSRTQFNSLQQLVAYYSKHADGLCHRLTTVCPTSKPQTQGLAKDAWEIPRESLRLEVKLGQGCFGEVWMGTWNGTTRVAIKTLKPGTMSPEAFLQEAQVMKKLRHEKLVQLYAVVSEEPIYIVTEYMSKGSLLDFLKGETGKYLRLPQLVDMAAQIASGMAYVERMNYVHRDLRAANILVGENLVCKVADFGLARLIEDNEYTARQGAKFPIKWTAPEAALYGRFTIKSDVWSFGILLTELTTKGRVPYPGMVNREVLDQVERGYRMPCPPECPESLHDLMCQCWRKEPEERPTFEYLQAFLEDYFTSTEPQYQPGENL
Method: (§1) The activity of MT-SYK-03 against cSrc kinase and selectivity profile towards other 341 kinases was determined at Reaction Biology Corporation (Malvern, PA, USA) using the standard kinase assay protocol. […]; unbound phosphate was removed by extensive washing of filters in phosphoric acid. Kinase activity data was expressed as the percent remaining kinase activity in test samples compared to vehicle (dimethyl sulfoxide) reactions based on the radioactivity of reaction products (see Table S2). Experiment was replicated twice.

[2] = biological target: T2, PAK6 (Homo sapiens, UniProt Q9NQU5); assay: Kinase selectivity profile assay; format: biochemical; details: 500 nM; relative to DMSO; read-out: Residual enzymatic activity
T2 construct: purchased Reaction Biology Corporation
T2 sequence (Q9NQU5 whole entry): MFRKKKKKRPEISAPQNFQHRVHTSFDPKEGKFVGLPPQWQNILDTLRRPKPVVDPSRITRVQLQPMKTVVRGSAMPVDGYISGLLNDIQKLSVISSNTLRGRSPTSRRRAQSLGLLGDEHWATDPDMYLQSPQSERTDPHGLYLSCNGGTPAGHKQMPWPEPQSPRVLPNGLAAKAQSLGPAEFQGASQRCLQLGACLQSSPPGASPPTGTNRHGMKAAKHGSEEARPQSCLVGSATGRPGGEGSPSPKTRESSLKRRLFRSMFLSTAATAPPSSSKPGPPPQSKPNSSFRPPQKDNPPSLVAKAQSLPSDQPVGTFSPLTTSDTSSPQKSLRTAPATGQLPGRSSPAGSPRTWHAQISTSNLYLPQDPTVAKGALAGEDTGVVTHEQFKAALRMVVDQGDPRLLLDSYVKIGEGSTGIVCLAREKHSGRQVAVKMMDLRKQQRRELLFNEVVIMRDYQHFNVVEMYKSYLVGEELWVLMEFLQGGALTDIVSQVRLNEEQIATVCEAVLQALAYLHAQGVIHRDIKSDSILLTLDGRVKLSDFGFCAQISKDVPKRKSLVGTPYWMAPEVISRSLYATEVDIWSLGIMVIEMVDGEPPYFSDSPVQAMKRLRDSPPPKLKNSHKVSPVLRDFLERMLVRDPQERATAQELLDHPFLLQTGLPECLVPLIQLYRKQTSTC
Method: as §1

[3] = biological target: T3, TSSK2 (Homo sapiens, UniProt Q96PF2); assay: Kinase selectivity profile assay; format: biochemical; details: 500 nM; relative to DMSO; read-out: Residual enzymatic activity
T3 construct: purchased Reaction Biology Corporation
T3 sequence (Q96PF2 whole entry): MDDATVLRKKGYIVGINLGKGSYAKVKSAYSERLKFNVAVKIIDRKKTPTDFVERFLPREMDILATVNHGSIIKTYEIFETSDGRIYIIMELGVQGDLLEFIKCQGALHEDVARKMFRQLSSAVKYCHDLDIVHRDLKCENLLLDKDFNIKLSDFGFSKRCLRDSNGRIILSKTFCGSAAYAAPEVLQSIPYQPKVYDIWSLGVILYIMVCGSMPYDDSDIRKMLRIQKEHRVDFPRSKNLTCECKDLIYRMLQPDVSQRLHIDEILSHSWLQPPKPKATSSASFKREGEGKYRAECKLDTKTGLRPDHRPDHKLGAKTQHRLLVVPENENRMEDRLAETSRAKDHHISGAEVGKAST
Method: as §1

[4] = biological target: T4, CDK5/p35 (Homo sapiens, UniProt Q00535); assay: Kinase selectivity profile assay; format: biochemical; details: 500 nM; relative to DMSO; read-out: Residual enzymatic activity
T4 construct: purchased Reaction Biology Corporation
T4 sequence (Q00535 whole entry): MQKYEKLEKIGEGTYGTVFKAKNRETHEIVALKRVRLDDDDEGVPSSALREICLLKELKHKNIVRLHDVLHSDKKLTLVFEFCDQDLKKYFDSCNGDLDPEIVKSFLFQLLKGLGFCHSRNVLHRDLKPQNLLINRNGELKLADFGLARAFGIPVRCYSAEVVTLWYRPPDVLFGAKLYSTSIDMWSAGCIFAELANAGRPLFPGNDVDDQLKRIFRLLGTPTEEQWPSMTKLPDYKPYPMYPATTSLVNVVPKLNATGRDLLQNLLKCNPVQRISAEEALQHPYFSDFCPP
T4 sequence (Q15078 whole entry partner): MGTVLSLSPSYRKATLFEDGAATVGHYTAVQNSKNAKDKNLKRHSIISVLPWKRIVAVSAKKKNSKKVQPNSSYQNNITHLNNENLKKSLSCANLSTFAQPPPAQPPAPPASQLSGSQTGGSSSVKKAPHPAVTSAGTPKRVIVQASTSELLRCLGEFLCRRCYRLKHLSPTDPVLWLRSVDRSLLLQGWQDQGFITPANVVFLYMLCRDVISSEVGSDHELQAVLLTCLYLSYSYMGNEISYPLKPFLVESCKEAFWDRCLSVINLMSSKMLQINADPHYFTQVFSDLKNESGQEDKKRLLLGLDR
Method: as §1

[5] = system: mongrel rats, AIA model; assay: Adjuvant-induced arthritis in rats; format: in vivo
Method: Rat adjuvant-induced arthritis (AIA) model was performed at Pharmenterprises, Russia as described previously^3 and approved by Ethics Committee of Pharmenterprises. Male 10 week old mongrel rats were divided into eleven groups: negative control (#1), positive control (#2) and nine treatment groups (#3–11), ten […] in each group. Group #1 was left intact, while subplantar injection of 0.1 mL of Complete Freund’s adjuvant (CFA, Sigma) was made on day 0 at right paws of rats in groups […]. […] Disease progression was monitored by measuring volumes of the right (involved) and left (non-involved) paws on days 0, 14, 18, 21, 25, and 28.

[6] = system: Lewis rats, CIA model; assay: Collagen-induced semi-established arthritis model in rats; format: in vivo, rat; details: ankle, day 16, MT-SYK-03 103 mg/kg PO BID + MTX Veh PO QD
Method: Rat CIA model was performed was performed at Pharmenterprises, Russia and approved by Ethics Committee of Pharmenterprises. Female Lewis rats with body weight of 164–183 g (Charles River Laboratories, Inc., Wilmington, MA) were injected with porcine type II collagen (Chondrex) emulsified with Freund’s Incomplete Adjuvant (Sigma Aldrich) at two sites at the base of the tail according to standard protocol. On day 7, the rats were boosted with a second subcutaneous injection. On day 6 of the study, rats were randomized by body weight into six groups: a control group of four, and five treatment groups of eight. […] Disease progression was monitored via daily ankle thickness measurements. At study termination on day 16 rats were anesthetized with Isoflurane, bled by vacutainer through the descending aorta to exsanguinate and then euthanized for tissue collection. Hind paws were transected at the level of the medial and lateral malleolus, weighed, and collected for microscopy.
[…]

[7] = individual joint (animal, R/L), 103 mg/kg

COc1cc(Nc2ncnc(Nc3cc4c(cn3)NC(=O)C(C)(C)O4)n2)cc(OC)c1OC [MT-SYK-03]
IC50 [1]: 14.2 nM and 23 to 40 nM and 14 nM | remaining activity at 0.5 µM ([1]; 500 nM, relative to DMSO, read-out: Residual enzymatic activity): 6.2% | remaining activity at 0.5 µM [2]: 96.5% | remaining activity at 0.5 µM [3]: 106% | remaining activity at 0.5 µM [4]: 101% | Animal death ([5]; MT-SYK-03 52 mg/kg BID intragastric, 14 days): 0% | Animal death ([5]; MT-SYK-03 52 mg/kg BID intragastric, 18 days): 0% | Animal death ([5]; MT-SYK-03 52 mg/kg BID intragastric, 21 days): 0% | Animal death ([5]; MT-SYK-03 52 mg/kg BID intragastric, 25 days): 0% | Animal death ([5]; MT-SYK-03 52 mg/kg BID intragastric, 28 days): 0% | Animal death ([5]; MT-SYK-03 103 mg/kg BID intragastric, 14 days): 0% | Animal death ([5]; MT-SYK-03 103 mg/kg BID intragastric, 18 days): 0% | Animal death ([5]; MT-SYK-03 103 mg/kg BID intragastric, 21 days): 0% | Animal death ([5]; MT-SYK-03 103 mg/kg BID intragastric, 25 days): 0% | Animal death ([5]; MT-SYK-03 103 mg/kg BID intragastric, 28 days): 0% | Animal death ([5]; MT-SYK-03 207 mg/kg QD intragastric, 14 days): 0% | Animal death ([5]; MT-SYK-03 207 mg/kg QD intragastric, 18 days): 0% | Animal death ([5]; MT-SYK-03 207 mg/kg QD intragastric, 21 days): 0% | Animal death ([5]; MT-SYK-03 207 mg/kg QD intragastric, 25 days): 0% | Animal death ([5]; MT-SYK-03 207 mg/kg QD intragastric, 28 days): 0% | The increase in the volume of the paws relative to the initial level ([5]; non-involved paws, MT-SYK-03 52 mg/kg BID intragastric, 18 days): 22.55±2.93& % | The increase in the volume of the paws relative to the initial level ([5]; non-involved paws, MT-SYK-03 52 mg/kg BID intragastric, 21 days): 23.66±3.25& % | The increase in the volume of the paws relative to the initial level ([5]; non-involved paws, MT-SYK-03 52 mg/kg BID intragastric, 25 days): 24.39±2.8& % | The increase in the volume of the paws relative to the initial level ([5]; non-involved paws, MT-SYK-03 52 mg/kg BID intragastric, 28 days): 25.25±2.86& % | The increase in the volume of the paws relative to the initial level ([5]; non-involved paws, MT-SYK-03 103 mg/kg BID intragastric, 14 days): 11.22±1.26& % | The increase in the volume of the paws relative to the initial level ([5]; non-involved paws, MT-SYK-03 103 mg/kg BID intragastric, 18 days): 17.42±1.16& % | The increase in the volume of the paws relative to the initial level ([5]; non-involved paws, MT-SYK-03 103 mg/kg BID intragastric, 21 days): 20.38±2.11& % | The increase in the volume of the paws relative to the initial level ([5]; non-involved paws, MT-SYK-03 103 mg/kg BID intragastric, 25 days): 22.35±2.28& % | The increase in the volume of the paws relative to the initial level ([5]; non-involved paws, MT-SYK-03 103 mg/kg BID intragastric, 28 days): 21.41±2.05&# % | The increase in the volume of the paws relative to the initial level ([5]; non-involved paws, MT-SYK-03 207 mg/kg QD intragastric, 14 days): 14.3±1.82& % | The increase in the volume of the paws relative to the initial level ([5]; non-involved paws, MT-SYK-03 207 mg/kg QD intragastric, 18 days): 19.97±1.89& % | The increase in the volume of the paws relative to the initial level ([5]; non-involved paws, MT-SYK-03 207 mg/kg QD intragastric, 21 days): 21.15±1.89& % | The increase in the volume of the paws relative to the initial level ([5]; non-involved paws, MT-SYK-03 207 mg/kg QD intragastric, 25 days): 22.51±1.61& % | The increase in the volume of the paws relative to the initial level ([5]; non-involved paws, MT-SYK-03 207 mg/kg QD intragastric, 28 days): 21.94±1.37&# % | The increase in the volume of the paws relative to the initial level ([5]; po, 52 mg/kg, 336 h): 13.93±1.83& % | Rats died ([5]; rat AIA, MT-SYK-03): 0% | Volume of non-involved paws ([5]; rat AIA, MT-SYK-03 103 and 207 mg/kg, day 28): decreased the volume of non-involved paws | The increase in the volume of the paws relative to the initial level ([5]; treated paws, MT-SYK-03 52 mg/kg BID intragastric, 14 days): 77.6 ± 4.53 & % | The increase in the volume of the paws relative to the initial level ([5]; treated paws, MT-SYK-03 52 mg/kg BID intragastric, 18 days): 85.72 ± 3.7 & % | The increase in the volume of the paws relative to the initial level ([5]; treated paws, MT-SYK-03 52 mg/kg BID intragastric, 21 days): 88.24 ± 4.4 & % | The increase in the volume of the paws relative to the initial level ([5]; treated paws, MT-SYK-03 52 mg/kg BID intragastric, 25 days): 94.75 ± 7.18 & % | The increase in the volume of the paws relative to the initial level ([5]; treated paws, MT-SYK-03 52 mg/kg BID intragastric, 28 days): 93.88 ± 6.77 & % | The increase in the volume of the paws relative to the initial level ([5]; treated paws, MT-SYK-03 103 mg/kg BID intragastric, 14 days): 76.18 ± 7.73 & % | The increase in the volume of the paws relative to the initial level ([5]; treated paws, MT-SYK-03 103 mg/kg BID intragastric, 18 days): 85.98 ± 7.51 & % | The increase in the volume of the paws relative to the initial level ([5]; treated paws, MT-SYK-03 103 mg/kg BID intragastric, 21 days): 86.55 ± 8.13 & % | The increase in the volume of the paws relative to the initial level ([5]; treated paws, MT-SYK-03 103 mg/kg BID intragastric, 25 days): 86.47 ± 7.89 & % | The increase in the volume of the paws relative to the initial level ([5]; treated paws, MT-SYK-03 103 mg/kg BID intragastric, 28 days): 89.02 ± 7.37 & % | The increase in the volume of the paws relative to the initial level ([5]; treated paws, MT-SYK-03 207 mg/kg QD intragastric, 14 days): 81.54 ± 6.88 & % | The increase in the volume of the paws relative to the initial level ([5]; treated paws, MT-SYK-03 207 mg/kg QD intragastric, 18 days): 82.92 ± 6.64 & % | The increase in the volume of the paws relative to the initial level ([5]; treated paws, MT-SYK-03 207 mg/kg QD intragastric, 21 days): 83.22 ± 6.53 & % | The increase in the volume of the paws relative to the initial level ([5]; treated paws, MT-SYK-03 207 mg/kg QD intragastric, 25 days): 88.58 ± 7.8 & % | The increase in the volume of the paws relative to the initial level ([5]; treated paws, MT-SYK-03 207 mg/kg QD intragastric, 28 days): 93.67 ± 9.08 & % | Bone Resorption score, Mean ([6]; group mean): 1.50 | Cartilage Damage score, Mean ([6]; group mean): 2.09 | Inflammation score, Mean ([6]; group mean): 4.44 | Pannus score, Mean ([6]; group mean): 1.50 | Periosteal Bone Formation score, Mean ([6]; group mean): 1.19 | Periosteal Naïve Bone Width Actual, Mean ([6]; group mean): 200.81 μm | Summed Histopathology Scores, Mean ([6]; group mean): 10.72 | Bone Resorption score (0=normal to 5=severe) [6, 7]: 2 and 0.5 and 1 | Cartilage Damage score (0=normal to 5=severe) [6, 7]: 3 and 0.5 and 2 and 1 | Inflammation score (0=normal to 5=severe) [6, 7]: 5 and 2 and 4 and 3 | Pannus score (0=normal to 5=severe) [6, 7]: 2 and 0.5 and 1 | Periosteal Bone Formation score (0=normal to 5=severe) [6, 7]: 2 and 0 and 1 and 0.5 | Periosteal Naïve Bone Width 16x Measure [6, 7]: 5 and 0 and 3 and 2 and 1 and 4 | Periosteal Naïve Bone Width Actual [6, 7]: 315 μm and 0 μm and 189 μm and 126 μm and 63 μm and 252 μm | Summed Histopathology Scores [6, 7]: 14 and 3.5 and 12 and 13 and 10 and 6.5 and 7.5 and 8.5
